Assays:
Aβ40 = Aβ40 (Homo sapiens, UniProt P05067); assay: ThT Aβ aggregation assay (kinetic Thioflavin T fluorescence); format: biochemical; conditions: 20 μM Aβ, DMSO control at 80 hr = 0% inhibition, number in parenthesis = compound ID 1027 in that experiment; for % inhib Thioflavin T Aβ 40 (3 μm): compound 3 μm (so in the source); for inhibition at 5 µM: 80 h, compound 5 μm (so in the source), read-out: % inhib Thioflavin T Aβ 40 (5 μm); for inhibition at 10 µM: compound 10 μM, read-out: % inhib Thioflavin T Aβ 40 10 μM
Method: Preparation of Aβ40 Stock Solutions
Aβ40 (1.0 mg) was pre-treated in a 1.5 mL microfuge tube with HFIP (1 mL) and sonicated for 20 min to disassemble any pre-formed Aβ aggregates. The HFIP was removed with a stream of argon and the Aβ dissolved in Tris base (5.8 mL, 20 mM, pH ˜10). The pH was adjusted to 7.4 with concentrated HCl (˜10 μL) and the solution filtered using a syringe filter (0.2 μm) before being used.
The kinetic ThT assay for Aβ aggregation is similar to that of Chalifour et al (Chalifour et al, 2003, J. Biol. Chem. 278:34874-81). Briefly, pre-treated Aβ40 or Aβ42 (40 μM in 20 mM Tris, pH 7.4) was diluted with an equal volume of 8 μM Thioflavin T (ThT) in Tris (20 mM, pH 7.4, 300 mM NaCl). Aliquots of Aβ/ThT (200 μL) were added to wells of a black polystyrene 96-well plate, followed by 2 μL of a compound in DMSO (variable concentration), or DMSO alone (controls). Incubations were performed in triplicate and were taken to contain 20 μM Aβ, various concentration of compound in 20 mM Tris, pH 7.4, 150 mM NaCl, 1% DMSO. Plates were covered with clear polystyrene lids and incubated at 37° C. in a Tecan Genios microplate reader.
Analysis of ThT and ThS Aggregation Assays
Fluorescence readings (λex=450 nm, λem=480 nm) were taken every 15 min., after first shaking at high intensity for 15 s and allowing to settle for 10 s before each reading. Active compounds attenuated the increase in fluorescence over time that occurred in controls. In FIGS. 1-7, the time this procedure was performed extended to 80 hours (rightmost part of X-axis), at which point fluorescence increase generally reached an asymptote. Applying a definition of DMSO control at 80 hr as 100% aggregation (0% inhibition) and DMSO control at 0 hr as 0% aggregation (100% inhibition), a % inhibition score where higher is better can be calculated for a given concentration of compound. By repeating this procedure over several concentrations, a […] (IC50) can be measured, as is given in the table below for some compounds.

[1] = target: Terminally biotinylated beta-amyloid (Aβ42) (Homo sapiens, UniProt P05067); assay: Aβ42 biotinylated (biotin-AB) oligomerization assay, NeutrAvidin capture ELISA; format: biochemical; conditions: approximate value; 1 hr oligomerization at room temperature; read-out: IC50 Aβ 42-bio
Method: Aβ42 Biotinylated Assay Terminally biotinylated beta-amyloid (biotin-AB) was dissolved in HFIP at the concentration of 1 mg/ml and aliquoted to 50 μl/tube in 0.65 ml colored microfuge tubes (Fisher 02-681-248). The aliquots were diluted immediately by adding 450 μl of HFIP to 0.1 mg/ml. Approximately 46 ul (containing approximately 4.6 ug of biotin-AB) were taken from a tube, 100 ul of HFIP added, vortexed, and dried to a thin film under an N2 stream. 100 μl of trifluoroacetic acid (TFA) was added and vortexed. After 10 minute incubation at room temperature in a hood, resulting in disaggregation of seeds, the sample was vortexed again and dried again to a thin film under an N2 stream. 100 μl of HFIP was added, mixed, and the biotin-AB sample was dried for a third time under an N2 stream to remove residual TFA. The treated biotin-AB was dissolved in DMSO to a final peptide concentration of […] (SOX). An ELISA “capture” plate (Costar 9018) was coated with 50 μl of 1 μg/ml NeutrAvidin™ (NA) in 10 mM sodium phosphate buffer, pH 7.5. (NeutrAvidin can be prepared as 1 mg/ml (1000×) in milliQ water/10% glycerol and stored at −80° C. before use.) The plate was sealed plate with adhesive film and stored at 4° C. overnight, then blocked for 2 hours (unsealed) at room temperature with 200 μl/well OFB+0.1% v/v Tween 20. The “capture” plate was allowed to come to room temperature. Several dilutions of test compound were prepared with 100% DMSO, according to the desired concentration to be tested. 2.5 μl of diluted test compound was pipetted into the bottom of each well of a 96-well “dilution” polypropylene plate (Costar 3365), to which was added 250 ul of Oligomer Formation Buffer (OFB: 20 mM sodium phosphate, pH 7.5-150 mM NaCl). To begin oligomerization, 2 μl/well of the biotin-AB was added to the bottom of each well of a 96-well “reaction” polypropylene plate (Costar 3365) and 100 ul of each well of the “dilution” plate was transferred to the “reaction” plate (final concentration of DMSO being up to 1%). The reaction plate was sealed and incubated for 1 hr at room temperature without shaking. The reaction was then stopped by the addition of 50 ul of 0.3% Tween 20 in water. The “capture” plate blocking solution was removed, and 50 ul of each well of the “reaction” plate was transferred to each well of the “capture” plate. The “capture” plate was sealed and incubated for 2 hours at room temperature with shaking at 150 rpm. The “capture” plate was then washed on a plate washer (3×) with 200 ul/well TBST (20 mM Tris-HCL, pH 7.5/150 mM NaCl/0.1% Tween 20). 50 ul of Streptavidin-horseradish […] (1:20,000 dilution) in OFB+0.1% Tween 20 was added to each well, the “capture” plate was sealed and incubated for 1 hr with shaking at 150 rpm. As before, the plate was washed, then 100 ul of TMB/H2O2 substrate solution was added to each well. After 5-10 minutes, 100 ul of 1% v/v sulfuric acid was added and the absorbance of each well was read at 450 nm using a standard plate reader. Data is summarized in the table below; numbers given in parenthesis for the Aβ 40 Thioflavin T assays are the values in that particular experiment for compound ID 1027, given as the first entry in this table for structural comparison. “IC50 Aβ42-bio” column refers to the approximate value of the Aβ42 biotinylated assay IC50 in micromoles/L.

Sequence of Terminally biotinylated beta-amyloid (Aβ42) (P05067 672-713, species assumed): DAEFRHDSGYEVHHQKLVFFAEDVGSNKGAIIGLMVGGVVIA
Sequence of Aβ40 (P05067 672-711, species assumed): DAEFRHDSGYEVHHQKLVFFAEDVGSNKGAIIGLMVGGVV

Row | % inhib Thioflavin T Aβ 40 (3 μm) (Aβ40) [%] | inhibition at 5 µM (Aβ40) [%] | inhibition at 10 µM (Aβ40) [%] | IC50 [1] [µM] | Compound
1 | 26 | – | – | – | O=C(c1ccccc1)N1CCN(c2ccc([N+](=O)[O-])c(Nc3ccccc3)c2)CC1 [compound 1027, reference compound]
2 | 52 | – | – | – | OCC1CN(c2cc(-c3cccc(C(O)C(F)(F)F)c3)cc3nonc23)C1 (stereo not drawn) [compound 1428]
3 | 23 | – | – | – | OC(c1cccc(-c2cc(N3CCC3)c3nonc3c2)c1)C(F)(F)F (stereo not drawn) [compound 1432]
4 | – | 37 | 61 | – | OC(c1cc(-c2cc(N3CCC(N4CCCC4)CC3)c3nonc3c2)cs1)C(F)(F)F (stereo not drawn) [compound 1463]
5 | – | – | 35 | > 20 | OC(c1ccc(-c2cc(N3CCC(N4CCCC4)CC3)c3nonc3c2)s1)C(F)(F)F (stereo not drawn) [compound 1464]
6 | – | 44 | – | > 20 | CN(C)CCCN(C)c1cc(-c2cccc(C(O)C(F)(F)F)c2)cc2nonc12 (stereo not drawn) [compound 1465]
7 | – | 37 | – | 4.1 | CN(C)C1CCN(c2cc(-c3cccc(C(O)C(F)(F)F)c3)cc3nonc23)CC1 (stereo not drawn) [compound 1466]
8 | – | 28 | 43 | 5.1 | OC(c1ccccc1-c1cc(N2CCC(N3CCCC3)CC2)c2nonc2c1)C(F)(F)F (stereo not drawn) [compound 1467]
9 | – | 44 | 65 | 2.4 | OC(c1ccc(-c2cc(N3CCC(N4CCCC4)CC3)c3nonc3c2)cc1)C(F)(F)F (stereo not drawn) [compound 1468]
10 | – | 70 | 75 | 2.4 | CN(CCCN1CCCC1)c1cc(-c2cccc(C(O)C(F)(F)F)c2)cc2nonc12 (stereo not drawn) [compound 1469]
11 | – | – | 62 | > 20 | Brc1cc(N2CC(CN3CCOCC3)C2)c2nonc2c1 [compound 1470]
12 | – | – | 29 | 4.4 | OC(c1ccccc1-c1cc(N2CC(CN3CCOCC3)C2)c2nonc2c1)C(F)(F)F (stereo not drawn) [compound 1471]
13 | – | – | 65 | 3.6 | Brc1cc(N2CC(CN3CCCC3)C2)c2nonc2c1 [compound 1472, 6-bromo-4-(3-(pyrrolidin-1-ylmethyl)azetidin-1-yl)benzo[c][1,2,5]oxadiazole]
14 | – | – | 31 | 18.1 | c1cc(N2CC(CN3CCCC3)C2)c2nonc2c1 [compound 1473]
15 | – | – | 77 | 3.1 | OC(c1ccccc1-c1cc(N2CC(CN3CCCC3)C2)c2nonc2c1)C(F)(F)F (stereo not drawn) [compound 1474]
16 | – | – | 36 | 12.2 | c1cncc(-c2cc(N3CC(CN4CCCC4)C3)c3nonc3c2)c1 [compound 1476]
17 | – | – | 30 | 1.83 | O=C(c1cc(N2CC(CN3CCCC3)C2)c2nonc2c1)C(F)(F)F [compound 1477]

Row | % inhib Thioflavin T Aβ 40 (3 μm) (Aβ40) [%] | inhibition at 5 µM (Aβ40) [%] | inhibition at 10 µM (Aβ40) [%] | IC50 [1] [µM] | Compound
18 | – | – | 63 | 1.82 | Clc1cc(Cl)cc(-c2cc(N3CC(CN4CCCC4)C3)c3nonc3c2)c1 [compound 1478]
19 | – | – | 24 | 7.94 | CS(=O)(=O)c1cccc(-c2cc(N3CC(CN4CCCC4)C3)c3nonc3c2)c1 [compound 1479]
20 | – | – | 31 | 6.33 | CC(=O)c1cccc(-c2cc(N3CC(CN4CCCC4)C3)c3nonc3c2)c1 [compound 1480]
21 | – | – | 11 | 6.14 | CS(=O)(=O)c1ccccc1-c1cc(N2CC(CN3CCCC3)C2)c2nonc2c1 [compound 1481]
22 | – | – | 41 | 5.52 | CC(=O)Nc1ccc(-c2cc(N3CC(CN4CCCC4)C3)c3nonc3c2)cc1 [compound 1482]
23 | – | – | 36 | 8.21 | COc1ccc(-c2cc(N3CC(CN4CCCC4)C3)c3nonc3c2)cc1OC [compound 1483]
24 | – | – | – | > 20 | OC1(c2ccccc2-c2cc(N3CC(CN4CCOCC4)C3)c3nonc3c2)COC1 [compound 1663]
25 | – | – | – | 21.8 | OC(/C=C/c1cc(N2CC(CN3CCOCC3)C2)c2nonc2c1)C(F)(F)F (stereo not drawn) [compound 1665, (E)-1,1,1-trifluoro-4-(7-(3-(morpholinomethyl)azetidin-1-yl)benzo[c][1,2,5]oxadiazol-5-yl)but-3-en-2-ol]
26 | – | – | – | > 20 | CC(C)(O)C1CC1c1cc(N2CC(CN3CCOCC3)C2)c2nonc2c1 (stereo not drawn) [compound 1666, 2-(2-(7-(3-(morpholinomethyl)azetidin-1-yl)benzo[c][1,2,5]oxadiazol-5-yl)cyclopropyl)propan-2-ol]
27 | – | – | – | 17.5 | OC(c1ncoc1-c1cc(N2CC(CN3CCOCC3)C2)c2nonc2c1)C(F)(F)F (stereo not drawn) [compound 1667]
28 | – | – | – | 11.2 | COc1ccc(-c2cc(N3CC(CN4CCOCC4)C3)c3nonc3c2)cn1 [compound 1670, 6-(6-methoxypyridin-3-yl)-4-(3-(morpholinomethyl)azetidin-1-yl) benzo[c][1,2,5]oxadiazole]
29 | – | – | – | 26.1 | OC(c1ncc(-c2cc(N3CC(CN4CCOCC4)C3)c3nonc3c2)o1)C(F)(F)F (stereo not drawn) [compound 1677]
30 | – | – | – | 5.6 | OC1(c2cc(N3CC(CN4CCOCC4)C3)c3nonc3c2)CC(OCc2ccccc2)C1 (stereo not drawn) [compound 1692, 3-(benzyloxy)-1-(7-(3-(morpholinomethyl)azetidin-1-yl)benzo[c][1,2,5]oxadiazol-5-yl) cyclobutan-1-ol]
31 | – | – | – | 22.6 | OC1(c2ccc(-c3cc(N4CCC(N5CCOCC5)CC4)c4nonc4c3)cc2)COC1 [compound 1717]
32 | – | – | – | 13 | OC1(c2ccc(-c3cc(N4CCC(N5CCOCC5)C4)c4nonc4c3)cc2)COC1 (stereo not drawn) [compound 1719]
33 | – | – | – | 2.4 | CC(=O)NC1CCN(c2cc(-c3ccc(C4(O)COC4)cc3)cc3nonc23)CC1 [compound 1735]
34 | – | – | – | 9.7 | OC1(c2ccc(-c3cc(N4CCC(CN5CCOCC5)CC4)c4nonc4c3)cc2)COC1 [compound 1736]

— US9938249B2, “Anti-amyloid compounds containing benzofurazan” (Treventis Corporation, priority 2014, dated 2018)
